According to patent US20220220155A1, “VASCULAR C[…] USE THEREOF” (priority 2019, published 2022):
Where a SMILES comes first, the peptide text is derived from it. [ ]: non-standard residue; d: D form. ξ: configuration not given here. ξD = NC(CC(=O)O)C(=O)O

Tests used:
[1] = target: T1, PLA2-treated LDL (Homo sapiens, UniProt P04114); experiment: Anti-LDL aggregation assay, turbidimetry, aggregation induced by phospholipase A2 (PLA2); format: biochemical; conditions: 18 h, read-out: Inhibition of LDL aggregation, PLA2-treated LDL
T1 construct: from tissue; host or cells: pooled normolipemic human plasma
T1 sequence (P04114 28-4563): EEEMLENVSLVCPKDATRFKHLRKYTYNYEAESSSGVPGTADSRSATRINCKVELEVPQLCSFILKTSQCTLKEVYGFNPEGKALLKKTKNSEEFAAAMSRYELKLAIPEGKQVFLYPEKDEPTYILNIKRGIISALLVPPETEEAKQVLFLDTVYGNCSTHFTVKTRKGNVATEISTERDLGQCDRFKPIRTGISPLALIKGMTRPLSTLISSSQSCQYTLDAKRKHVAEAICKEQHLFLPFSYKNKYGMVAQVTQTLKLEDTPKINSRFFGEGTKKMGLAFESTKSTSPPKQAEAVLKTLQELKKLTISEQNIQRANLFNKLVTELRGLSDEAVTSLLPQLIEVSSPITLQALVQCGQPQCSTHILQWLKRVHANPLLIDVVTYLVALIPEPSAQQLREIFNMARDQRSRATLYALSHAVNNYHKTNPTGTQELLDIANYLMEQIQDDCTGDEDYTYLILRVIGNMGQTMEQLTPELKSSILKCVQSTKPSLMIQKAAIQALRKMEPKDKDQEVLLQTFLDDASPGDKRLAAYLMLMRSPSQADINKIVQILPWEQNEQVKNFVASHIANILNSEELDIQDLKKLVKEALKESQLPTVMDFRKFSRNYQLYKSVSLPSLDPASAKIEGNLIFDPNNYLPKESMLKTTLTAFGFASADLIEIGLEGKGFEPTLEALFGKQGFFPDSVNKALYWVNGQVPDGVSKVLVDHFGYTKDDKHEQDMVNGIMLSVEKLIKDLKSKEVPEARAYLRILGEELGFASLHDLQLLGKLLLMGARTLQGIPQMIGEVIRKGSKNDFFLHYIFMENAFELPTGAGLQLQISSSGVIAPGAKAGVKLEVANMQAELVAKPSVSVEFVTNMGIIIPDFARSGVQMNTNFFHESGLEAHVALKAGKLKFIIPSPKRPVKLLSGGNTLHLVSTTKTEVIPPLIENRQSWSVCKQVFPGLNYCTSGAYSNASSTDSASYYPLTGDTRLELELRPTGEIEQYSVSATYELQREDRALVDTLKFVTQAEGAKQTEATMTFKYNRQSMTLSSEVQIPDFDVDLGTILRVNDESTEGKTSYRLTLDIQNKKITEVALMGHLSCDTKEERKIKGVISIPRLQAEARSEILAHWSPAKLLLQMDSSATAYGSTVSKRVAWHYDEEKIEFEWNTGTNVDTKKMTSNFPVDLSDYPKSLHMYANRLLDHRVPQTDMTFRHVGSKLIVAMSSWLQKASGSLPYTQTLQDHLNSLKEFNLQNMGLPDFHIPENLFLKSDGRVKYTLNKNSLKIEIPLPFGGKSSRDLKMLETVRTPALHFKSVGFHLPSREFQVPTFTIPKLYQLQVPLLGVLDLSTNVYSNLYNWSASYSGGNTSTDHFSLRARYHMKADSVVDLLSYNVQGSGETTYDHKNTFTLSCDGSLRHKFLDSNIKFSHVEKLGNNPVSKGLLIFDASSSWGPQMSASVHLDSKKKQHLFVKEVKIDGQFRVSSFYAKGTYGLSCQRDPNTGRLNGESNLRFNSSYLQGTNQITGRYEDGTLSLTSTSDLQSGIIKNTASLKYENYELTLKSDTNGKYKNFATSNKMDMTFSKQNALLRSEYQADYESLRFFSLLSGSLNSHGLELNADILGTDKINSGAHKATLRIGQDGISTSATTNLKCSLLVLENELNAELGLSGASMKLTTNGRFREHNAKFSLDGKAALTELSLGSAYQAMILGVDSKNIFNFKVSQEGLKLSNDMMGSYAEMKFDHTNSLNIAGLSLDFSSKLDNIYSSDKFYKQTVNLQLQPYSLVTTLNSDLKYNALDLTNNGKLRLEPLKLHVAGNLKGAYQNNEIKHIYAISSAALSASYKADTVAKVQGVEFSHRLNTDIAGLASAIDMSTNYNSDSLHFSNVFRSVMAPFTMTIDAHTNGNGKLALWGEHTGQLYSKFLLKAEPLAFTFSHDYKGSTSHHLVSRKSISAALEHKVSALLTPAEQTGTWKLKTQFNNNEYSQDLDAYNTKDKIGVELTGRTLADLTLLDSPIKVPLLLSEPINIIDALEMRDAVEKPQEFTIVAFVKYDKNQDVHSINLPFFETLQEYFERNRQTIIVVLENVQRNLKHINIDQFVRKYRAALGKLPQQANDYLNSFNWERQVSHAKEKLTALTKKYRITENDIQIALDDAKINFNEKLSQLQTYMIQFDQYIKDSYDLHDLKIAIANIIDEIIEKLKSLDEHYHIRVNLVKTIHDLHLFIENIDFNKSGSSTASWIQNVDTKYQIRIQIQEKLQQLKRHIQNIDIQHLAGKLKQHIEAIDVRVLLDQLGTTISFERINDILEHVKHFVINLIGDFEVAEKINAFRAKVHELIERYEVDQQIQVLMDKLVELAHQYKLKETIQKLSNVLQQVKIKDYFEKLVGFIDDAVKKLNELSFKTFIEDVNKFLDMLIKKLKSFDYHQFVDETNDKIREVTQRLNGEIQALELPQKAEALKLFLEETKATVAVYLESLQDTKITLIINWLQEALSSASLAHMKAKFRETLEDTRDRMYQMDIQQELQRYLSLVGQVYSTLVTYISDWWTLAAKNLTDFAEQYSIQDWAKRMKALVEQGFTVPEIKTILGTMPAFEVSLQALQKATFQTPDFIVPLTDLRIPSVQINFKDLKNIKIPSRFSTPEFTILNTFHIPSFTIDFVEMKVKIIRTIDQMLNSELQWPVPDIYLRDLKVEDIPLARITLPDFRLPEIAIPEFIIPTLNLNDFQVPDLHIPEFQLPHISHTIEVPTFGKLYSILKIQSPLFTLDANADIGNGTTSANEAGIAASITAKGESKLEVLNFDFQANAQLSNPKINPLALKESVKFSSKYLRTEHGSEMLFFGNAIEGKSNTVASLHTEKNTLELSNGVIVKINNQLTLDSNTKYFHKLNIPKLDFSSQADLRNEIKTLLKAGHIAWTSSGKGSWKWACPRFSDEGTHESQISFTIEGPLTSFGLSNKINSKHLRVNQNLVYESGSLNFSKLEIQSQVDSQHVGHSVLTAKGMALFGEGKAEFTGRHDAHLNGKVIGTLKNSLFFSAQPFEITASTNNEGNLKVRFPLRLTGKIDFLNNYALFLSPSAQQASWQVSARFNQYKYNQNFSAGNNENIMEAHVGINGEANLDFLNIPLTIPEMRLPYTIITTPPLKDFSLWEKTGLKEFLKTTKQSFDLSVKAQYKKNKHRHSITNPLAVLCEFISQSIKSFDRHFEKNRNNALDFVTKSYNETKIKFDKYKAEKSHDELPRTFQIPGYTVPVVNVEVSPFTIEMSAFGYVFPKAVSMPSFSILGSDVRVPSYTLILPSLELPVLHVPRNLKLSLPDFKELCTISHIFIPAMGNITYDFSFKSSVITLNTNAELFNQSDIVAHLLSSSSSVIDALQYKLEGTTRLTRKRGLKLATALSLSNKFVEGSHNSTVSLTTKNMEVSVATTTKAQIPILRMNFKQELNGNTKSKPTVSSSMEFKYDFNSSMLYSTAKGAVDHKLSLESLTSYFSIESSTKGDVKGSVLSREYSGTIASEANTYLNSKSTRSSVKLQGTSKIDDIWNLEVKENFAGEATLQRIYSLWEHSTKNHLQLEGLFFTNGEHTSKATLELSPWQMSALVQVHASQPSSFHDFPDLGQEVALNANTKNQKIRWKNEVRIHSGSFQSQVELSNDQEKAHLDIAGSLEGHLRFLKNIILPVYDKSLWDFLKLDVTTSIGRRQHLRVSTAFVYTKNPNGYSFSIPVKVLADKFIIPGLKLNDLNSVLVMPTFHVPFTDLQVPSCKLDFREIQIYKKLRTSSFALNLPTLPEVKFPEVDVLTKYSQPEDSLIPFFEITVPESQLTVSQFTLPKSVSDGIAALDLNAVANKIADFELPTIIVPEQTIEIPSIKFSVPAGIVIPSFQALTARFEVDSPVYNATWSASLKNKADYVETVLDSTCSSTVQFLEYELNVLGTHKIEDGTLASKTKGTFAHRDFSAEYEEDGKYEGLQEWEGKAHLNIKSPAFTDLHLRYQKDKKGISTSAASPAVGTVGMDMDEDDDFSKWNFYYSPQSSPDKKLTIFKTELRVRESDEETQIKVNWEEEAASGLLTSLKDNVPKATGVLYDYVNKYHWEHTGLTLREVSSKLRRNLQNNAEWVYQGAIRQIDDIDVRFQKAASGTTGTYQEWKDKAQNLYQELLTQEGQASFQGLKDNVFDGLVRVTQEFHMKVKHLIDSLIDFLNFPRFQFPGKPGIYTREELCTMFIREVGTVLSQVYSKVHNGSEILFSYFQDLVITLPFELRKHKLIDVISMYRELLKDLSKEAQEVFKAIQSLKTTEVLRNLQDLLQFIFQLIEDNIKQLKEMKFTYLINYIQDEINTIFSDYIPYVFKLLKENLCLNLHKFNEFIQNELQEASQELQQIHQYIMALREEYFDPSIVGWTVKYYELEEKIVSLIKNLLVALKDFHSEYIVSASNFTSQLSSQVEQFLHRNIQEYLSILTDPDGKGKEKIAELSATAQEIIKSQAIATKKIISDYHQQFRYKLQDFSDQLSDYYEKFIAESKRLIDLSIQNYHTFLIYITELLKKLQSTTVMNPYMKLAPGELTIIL
Method: (§1) The efficacy of the novel compounds to inhibit the aggregation of LDL has been tested in two parallel turbidimetric assays differing from each other only in the enzyme used to induce LDL aggregation, namely sphingomyelinase (SMase) and phospholipase A2 (PLA2), respectively.
(§2) Human LDL (d1.019-d1.063 g/mL) were obtained from pooled normolipemic human plasma by sequential ultracentrifugation in a KBr density gradient. Briefly, VLDL were first discarded after spinning plasma at 36.000 rpm for 18 h at 4° C., VLDL-free plasma was layered with 1.063 g/mL KBr solution and centrifuged at 36,000 rpm for 18 h at 4° C. LDL were dialyzed against 0.02 M Tris, 0.15 M NaCl, 1 mM EDTA, pH 7.5 for 18 hours, and then against normal saline for 2 hours. Finally, isolated LDL were filter-sterilized. Protein concentration was determined using a colorimetric assay.
(§3) Human LDL particles (1.44 mg/mL) were incubated with 40 U/L of Bacillus cereus SMase or with 50 μg/L of type II secretory PLA2 from honey bee venom in 20 mM Tris buffer (pH 7.0) containing 150 mM NaCl, 2 mM CaCl2), and MgCl2 at 37° C. LDL incubation with SMase and PLA2 was performed at peptide concentration of 10 μM (ratio compound/ApoB-100: 4.7/1) for 18 hours. LDL lipolysis was stopped by addition of EDTA (final concentration 10 mM).
(§4) The efficiency of each novel compound to inhibit LDL aggregation induced by SMase and PLA2 was estimated by turbidimetry measuring the absorbance at a wavelength of 405 nm. Thus, the inhibitory activity was calculated according to Equation I.
(§5) a corresponds to the absorbance value in the presence of nLDL particles, LDL aggregating enzyme (i.e., SMase or PLA2) and test compound;
(§6) b corresponds to the absorbance value in the presence of only nLDL particles;
(§7) c corresponds to the absorbance value in the presence of nLDL particles and LDL aggregating enzyme (i.e., SMase or PLA2);

[2] = target: T2, SMase-treated LDL (Homo sapiens, UniProt P04114); experiment: Anti-LDL aggregation assay, turbidimetry, aggregation induced by sphingomyelinase (SMase); format: biochemical; conditions: peptide 10 μM (compound/ApoB-100 4.7/1), human LDL 1.44 mg/mL, 40 U/L Bacillus cereus SMase, 18 hours, 37° C., absorbance at 405 nm, Equation I
T2 construct: from tissue; host or cells: pooled normolipemic human plasma
T2 sequence (P04114 28-4563): as above
Method: as §1, §2, §3, §4, §5, §6, §7

[3] = test system: human coronary vascular smooth muscle cells (hcVSMC); experiment: Inhibition of intracellular cholesterol accumulation induced by SMase (CE/FC ratio); format: cell-based; conditions: hcVSMC exposed 2 hours to SMase-LDL treated overnight with peptide 10 μM; CE and FC by thin layer chromatography and densitometry, Equation II
Method: Thus, the inhibitory effect of the novel compounds on the intracellular cholesterol accumulation has been analysed in terms of decrease in the ratio of intracellular CE and free cholesterol FC content of hcVSMC exposed to LDL and SMase-LDL.
All cells used were from a unique batch in order to prevent variability from cell origin. Cell quiescence was induced by maintaining the cell culture for 24 hours in a medium. Serum-deprived cells between passages 4 and 8 were used for experiments. VSMCs at these passages appeared as a relatively homogeneous population, showing a hill-and-valley confluence pattern. Cell monolayers were grown in vascular cell basal medium supplemented with vascular smooth muscle growth kit components. Quiescent cells were 2-hours exposed to LDL treated with SMase (in absence or presence of peptides) overnight at a concentration of 10 μM previously checked its aggregation by a turbidimetry test. Cells were then either collected for lipid extraction or processed for confocal microscopy analysis.
Following the lipoprotein incubation period, hcVSMC were exhaustively washed (twice with PBS, twice with PBS supplemented with 1% BSA, and once with PBS supplemented with both 1% BSA and 100 U/mL heparin), before they were harvested into 1 mL of 0.15 M NaOH. Lipids were extracted using the Bligh and Dyer method. The lipid extract was redissolved in dichloromethane, applied to silica gel plates, and separated by thin layer chromatography. A mixture of cholesterol and cholesterol palmitate, were also run as standards. Heptane or a solvent combination of heptane/diethylether/acetic acid (74:21:4, v/v/v) were used as chromatographic mobile phase. After lipid separation, the plates were dried and stained as previously reported. Finally, the spots corresponding to cholesteryl ester (CE) and free cholesterol (FC) were quantitated by densitometry.
The efficacy of each novel compound to decrease the ratio of intracellular cholesteryl esters (CE) and free cholesterol (FC) content of hcVSMC exposed to LDL and SMase-LDL was calculated according to Equation II.
a corresponds to the CE/FC ratio in hcVSMC exposed to SMase-LDL and in the presence of the test compound.
b corresponds to the CE/FC ratio in hcVSMC exposed to nLDL in the absence of the test compound.
c corresponds to the CE/FC ratio in hcVSMC exposed to SMase-LDL in the absence of the test compound.

Row | Compound | inhibition at 10 µM [1] [%] | inhibition at 10 µM [2] [%] | CE/FC ratio decrease (%) [3] [%]
1 | CC(=O)N[C@H](CC(=O)O)C(=O)N[C@H](CC(N)=O)C(=O)N[C@H](CC(=O)O)C(=O)N[C@H](CO)C(=O)N[C@H](CCC(=O)O)C(=O)NC(CC(=O)O)C(=O)N[C@H](CC(N)=O)C(=O)N[C@H](CO)C(=O)N[C@H](CC(=O)O)C(=O)N[C@H](CCC(=O)O)C(=O)N[C@H](CCC(=O)O)C(=O)N[C@H](C)C(N)=O (stereo partly drawn) [Example 13, Ac-D-Asp-D-Asn-D-Asp-D-Ser-D-Glu-D-Asp-D-Asn-D-Ser-D-Asp-D-Glu-D-Glu-D-Ala-NH2] (Ac-[dD][dN][dD][dS][dE][ξD][dN][dS][dD][dE][dE][dA]-NH2) | 95.9 | 95.5 | 80.4
2 | CC(=O)N[C@H](CO)C(=O)N[C@H](CCC(=O)O)C(=O)N[C@H](CC(=O)O)C(=O)N[C@H](CC(N)=O)C(=O)N[C@H](C)C(=O)N[C@H](CC(=O)O)C(=O)N[C@H](CCC(=O)O)C(=O)N[C@H](CCC(=O)O)C(=O)N[C@H](C)C(N)=O [Example 3, Ac-D-Ser-D-Glu-D-Asp-D-Asn-D-Ala-D-Asp-D-Glu-D-Glu-D-Ala-NH2] (Ac-[dS][dE][dD][dN][dA][dD][dE][dE][dA]-NH2) | 37.2 | 90 | –
3 | CC(=O)N[C@H](CC(N)=O)C(=O)N[C@H](CC(=O)O)C(=O)N[C@H](CO)C(=O)N[C@H](CCC(=O)O)C(=O)N[C@H](CC(=O)O)C(=O)N[C@H](CC(N)=O)C(=O)N[C@H](CO)C(=O)N[C@H](CC(=O)O)C(=O)N[C@H](CCC(=O)O)C(=O)N[C@H](CCC(=O)O)C(=O)N[C@H](CC(N)=O)C(N)=O [Example 11, Ac-D-Asn-D-Asp-D-Ser-D-Glu-D-Asp-D-Asn-D-Ser-D-Asp-D-Glu-D-Glu-D-Asn-NH2] (Ac-[dN][dD][dS][dE][dD][dN][dS][dD][dE][dE][dN]-NH2) | 95.2 | 94.8 | 76.5
4 | CC(=O)N[C@H](CC(=O)O)C(=O)N[C@H](CO)C(=O)N[C@H](CCC(=O)O)C(=O)N[C@H](CC(=O)O)C(=O)N[C@H](CC(N)=O)C(=O)N[C@H](CCCCN)C(=O)N[C@H](CC(=O)O)C(=O)N[C@H](CCC(=O)O)C(=O)N[C@H](CCC(=O)O)C(=O)N[C@H](C)C(N)=O [Example 19, Ac-D-Asp-D-Ser-D-Glu-D-Asp-D-Asn-D-Lys-D-Asp-D-Glu-D-Glu-D-Ala-NH2] (Ac-[dD][dS][dE][dD][dN][dK][dD][dE][dE][dA]-NH2) | 46.2 | 87.5 | 17.7
5 | CC(=O)NCC(=O)N[C@H](CC(=O)O)C(=O)N[C@H](CC(N)=O)C(=O)N[C@H](CC(=O)O)C(=O)N[C@H](CO)C(=O)N[C@H](CCC(=O)O)C(=O)N[C@H](CC(=O)O)C(=O)N[C@H](CC(N)=O)C(=O)N[C@H](CO)C(=O)N[C@H](CC(=O)O)C(=O)N[C@H](CCC(=O)O)C(=O)N[C@H](CCC(=O)O)C(=O)N[C@H](CC(N)=O)C(N)=O [Example 1, Ac-Gly-D-Asp-D-Asn-D-Asp-D-Ser-D-Glu-D-Asp-D-Asn-D-Ser-D-Asp-D-Glu-D-lu-D-Asn-NH2] (Ac-G[dD][dN][dD][dS][dE][dD][dN][dS][dD][dE][dE][dN]-NH2) | 77.5 | 92.5 | 76.5
6 | CC(=O)N[C@H](CO)C(=O)N[C@H](CCC(=O)O)C(=O)N[C@H](CC(=O)O)C(=O)N[C@H](CC(N)=O)C(=O)N[C@H](CO)C(=O)N[C@H](CC(=O)O)C(=O)N[C@H](CCC(=O)O)C(=O)N[C@H](CCC(=O)O)C(=O)N[C@H](CC(N)=O)C(N)=O [Example 2, Ac-D-Ser-D-Glu-D-Asp-D-Asn-D-Ser-D-Asp-D-Glu-D-Glu-D-Asn-NH2] (Ac-[dS][dE][dD][dN][dS][dD][dE][dE][dN]-NH2) | 87.7 | 80.7 | 58.8
7 | CC(=O)N[C@H](CC(=O)O)C(=O)N[C@H](CO)C(=O)N[C@H](CCC(=O)O)C(=O)N[C@H](CC(=O)O)C(=O)N[C@H](CC(N)=O)C(=O)N[C@H](CCCCN)C(=O)N[C@H](CC(=O)O)C(=O)N[C@H](CCC(=O)O)C(=O)N[C@H](CCC(=O)O)C(=O)N[C@H](CC(N)=O)C(N)=O [Example 18, Ac-D-Asp-D-Ser-D-Glu-D-Asp-D-Asn-D-Lys-D-Asp-D-Glu-D-Glu-D-Asn-NH2] (Ac-[dD][dS][dE][dD][dN][dK][dD][dE][dE][dN]-NH2) | 55.1 | 85.1 | 47.6
8 | CC(=O)N[C@H](CC(=O)O)C(=O)N[C@H](CO)C(=O)N[C@H](CCC(=O)O)C(=O)N[C@H](CC(=O)O)C(=O)N[C@H](CC(N)=O)C(=O)N[C@H](CO)C(=O)N[C@H](CC(=O)O)C(=O)N[C@H](CCC(=O)O)C(=O)N[C@H](CCC(=O)O)C(=O)N[C@H](CC(N)=O)C(N)=O [Example 12, Ac-D-Asp-D-Ser-D-Glu-D-Asp-D-Asn-D-Ser-D-Asp-D-Glu-D-Glu-D-Asn-NH2] (Ac-[dD][dS][dE][dD][dN][dS][dD][dE][dE][dN]-NH2) | 94.3 | 93.3 | 76.5
9 | CC(=O)N[C@H](CO)C(=O)N[C@H](CCC(=O)O)C(=O)N[C@H](CC(=O)O)C(=O)N[C@H](CCC(N)=O)C(=O)N[C@H](CO)C(=O)N[C@H](CCC(=O)O)C(=O)N[C@H](CCC(=O)O)C(=O)N[C@H](CCC(=O)O)C(=O)N[C@H](CCC(N)=O)C(N)=O [Example 4, Ac-D-Ser-D-Glu-D-Asp-D-Gln-D-Ser-D-Glu-D-Glu-D-Glu-D-Gln-NH2] (Ac-[dS][dE][dD][dQ][dS][dE][dE][dE][dQ]-NH2) | 32.6 | 91.5 | –
10 | CC(=O)N[C@H](CO)C(=O)N[C@H](CCC(=O)O)C(=O)N[C@H](CC(=O)O)C(=O)N[C@H](CCC(N)=O)C(=O)N[C@H](C)C(=O)N[C@H](CCC(=O)O)C(=O)N[C@H](CCC(=O)O)C(=O)N[C@H](CCC(=O)O)C(=O)N[C@H](C)C(N)=O [Example 5, Ac-D-Ser-D-Glu-D-Asp-D-Gln-D-Ala-D-Glu-D-Glu-D-Glu-D-Ala-NH2] (Ac-[dS][dE][dD][dQ][dA][dE][dE][dE][dA]-NH2) | 20.7 | 90.1 | –
11 | CC(=O)N[C@H](CO)C(=O)N[C@H](CCC(=O)O)C(=O)N[C@H](CC(=O)O)C(=O)N[C@H](CC(N)=O)C(=O)N[C@H](CCCNC(=N)N)C(=O)N[C@H](CC(=O)O)C(=O)N[C@H](CCC(=O)O)C(=O)N[C@H](CCC(=O)O)C(=O)N[C@H](Cc1c[nH]c2ccccc12)C(N)=O [Example 8, Ac-D-Ser-D-Glu-D-Asp-D-Asn-D-Arg-D-Asp-D-Glu-D-Glu-D-Trp-NH2] (Ac-[dS][dE][dD][dN][dR][dD][dE][dE][dW]-NH2) | 3.1 | 64.2 | –
12 | CC(=O)N[C@H](CO)C(=O)N[C@H](CCC(=O)O)C(=O)N[C@H](CC(=O)O)C(=O)N[C@H](CC(N)=O)C(=O)N[C@H](CCCNC(=N)N)C(=O)N[C@H](CC(=O)O)C(=O)N[C@H](CCC(=O)O)C(=O)N[C@H](CCC(=O)O)C(=O)N[C@H](CC(C)C)C(N)=O [Example 7, Ac-D-Ser-D-Glu-D-Asp-D-Asn-D-Arg-D-Asp-D-Glu-D-Glu-D-Leu-NH2] (Ac-[dS][dE][dD][dN][dR][dD][dE][dE][dL]-NH2) | -1.9 | 44.7 | –
